{"source": "patent US4179441A", "about": "“Fungidal and herbicidal 2-substituted-3-oxa-3aλ^4, 4-dithia-6-halo-1,5-diazapentalene” (Chevron Research Company, priority 1977, dated 1979)", "key": {"[1]": {"tested_on": "Alternaria solani", "assay": "Tomato Early Blight", "assay_type": "in vivo", "conditions": "288 h, read-out: Tomato Early blight % Control"}, "[2]": {"tested_on": "Rhizoctonia solani", "assay": "Mycelia Inhibition", "assay_type": "cell-based", "conditions": "mycelial inhibition, 25° C., 24 hours"}, "[3]": {"tested_on": "Pythium ultimum", "assay": "Mycelia Inhibition", "assay_type": "cell-based", "conditions": "mycelial inhibition, 25° C., 24 hours"}, "[4]": {"tested_on": "Phytophthora infestans", "assay": "whole plant or invertebrate", "assay_type": "in vivo", "conditions": "in Solanum lycopersicum, 168 h, read-out: Tomato Late Blight % Control"}, "[5]": {"tested_on": "Fusarium moniliforme", "assay": "Mycelia Inhibition", "assay_type": "cell-based", "conditions": "mycelial inhibition, 25° C., 24 hours"}, "[6]": {"tested_on": "Aspergillus niger", "assay": "Mycelia Inhibition", "assay_type": "cell-based", "conditions": "mycelial inhibition, 25° C., 24 hours"}, "[7]": {"tested_on": "Botrytis cinerea", "assay": "Botrytis cinerea control (detached horsebean leaves)", "assay_type": "in vivo", "conditions": "3 to 5 days", "protocol": "Compounds of the invention were tested for Botrytis cinerea control using detached, well-developed primary leaves of a 4-6 week old horsebean plant. […] The leaves were allowed to dry while the filter paper was kept moist by adding water as required. The treated leaves were then inoculated with the spores of Botrytis cinerea fungus grown on potato. The plate was covered after inoculation and kept at 23.5° C. The filter-paper lining of the plate was kept saturated with water throughout the test. The rate of disease incidence was determined in 3 to 5 days, when the disease symptoms were fully evident on non-treated check leaves. […]"}, "[8]": {"tested_on": "Erysiphe polygoni", "assay": "Powdery Mildew (bean seedlings)", "assay_type": "in vivo", "conditions": "240 h, 250 ppm spray on bean seedlings, about 10 days, relative to untreated check plants", "description": "The powdery mildew test was made using bean seedlings (var. Bountiful) with well-developed primary leaves. The pathogen was Erysiphe polygoni. The bean seedlings were sprayed with a 250 ppm solution of the test compound in an acetone-water mixture containing a nonionic emulsifier. The treated plants were inoculated one day after spray application of the test compound with the pathogen. […] The rate of infection on the leaves was made after about 10 days. The percent disease control provided by a given test compound was based on the disease reduction relative to untreated check plants."}, "[9]": {"tested_on": "Mustard (Brassica arvensis)", "assay": "Post-emergent herbicidal test", "assay_type": "in vivo", "conditions": "0-to-100 scale"}, "[10]": {"tested_on": "Watergrass (Echinochloa crusgalli)", "assay": "Post-emergent herbicidal test", "assay_type": "in vivo", "conditions": "0-to-100 scale"}, "[11]": {"tested_on": "Crabgrass (Digitaria sanguinalis)", "assay": "Post-emergent herbicidal test", "assay_type": "in vivo", "conditions": "0-to-100 scale"}, "[12]": {"tested_on": "Wild Oats (Avena fatua)", "assay": "Post-emergent herbicidal test", "assay_type": "in vivo", "conditions": "0-to-100 scale"}, "[13]": {"tested_on": "Wild Oats (Avena fatua)", "assay": "Pre-Emergent herbicidal test", "assay_type": "in vivo", "conditions": "33 micrograms/cm^2, 3 weeks, 0-to-100 scale, 100 = complete kill", "protocol": "(§1) Pre-emergent herbicidal tests on representative compounds of the invention were made using the following method:\n(§2) An acetone solution of the test compound was prepared by mixing 750 mg of the compound, 220 mg of a nonionic surfactant and 25 ml of acetone. This solution was added to approximately 125 ml of water containing 156 mg of surfactant.\n(§3) Seeds of the test vegetation were planted in a pot of soil and the test solution was sprayed uniformly onto the soil surface at a dose of 33 micrograms/cm^2. The pot was watered and placed in a greenhouse. […] At the end of this period, the herbicidal effectiveness of the compound was rated based on the physiological observations. A 0-to-100 scale was used, 0 representing no phytotoxicity, 100 representing complete kill."}, "[14]": {"tested_on": "Lambsquarter (Chenopodium album)", "assay": "Pre-Emergent herbicidal test", "assay_type": "in vivo", "conditions": "33 micrograms/cm^2, 3 weeks, 0-to-100 scale, 100 = complete kill", "protocol": "as §1, §2, §3"}, "[15]": {"tested_on": "Watergrass (Echinochloa crusgalli)", "assay": "Pre-Emergent herbicidal test", "assay_type": "in vivo", "conditions": "33 micrograms/cm^2, 3 weeks, 0-to-100 scale, 100 = complete kill", "protocol": "as §1, §2, §3"}, "[16]": {"tested_on": "Mustard (Brassica arvensis)", "assay": "Pre-Emergent herbicidal test", "assay_type": "in vivo", "conditions": "33 micrograms/cm^2, 3 weeks, 0-to-100 scale, 100 = complete kill", "protocol": "as §1, §2, §3"}, "[17]": {"tested_on": "Crabgrass (Digitaria sanguinalis)", "assay": "Pre-Emergent herbicidal test", "assay_type": "in vivo", "conditions": "33 micrograms/cm^2, 3 weeks, 0-to-100 scale, 100 = complete kill", "protocol": "as §1, §2, §3"}, "[18]": {"tested_on": "Lambsquarter (Chenopodium album)", "assay": "Post-emergent herbicidal test", "assay_type": "in vivo", "conditions": "0-to-100 scale"}, "[19]": {"conditions": "250 ppm spray, inoculated one day later, based on untreated check plants"}}, "note": "Read-outs that look alike come from different tables or passages of the source.", "data": [{"smiles": "Oc1ccccc1C1=NC2=S(O1)SN=C2Cl", "note": "(stereo not shown) [Compound 13]", "values": [{"measurement": "pest or weed control at 250 ppm", "setting": "[1]; [19]", "value": 51, "unit": "%"}, {"measurement": "Rhizoctonia solani, micrograms/cm^2 for 99% control of the fungus", "setting": "[2]", "value": 0.5, "unit": "micrograms/cm^2"}, {"measurement": "Pythium ultimum, micrograms/cm^2 for 99% control of the fungus", "setting": "[3]", "value": "> 1.7", "unit": "micrograms/cm^2"}, {"measurement": "pest or weed control at 250 ppm", "setting": "[4]", "value": 27, "unit": "%"}, {"measurement": "Fusarium moniliforme, micrograms/cm^2 for 99% control of the fungus", "setting": "[5]", "value": "> 1.7", "unit": "micrograms/cm^2"}, {"measurement": "Aspergillus niger, micrograms/cm^2 for 99% control of the fungus", "setting": "[6]", "value": 0.98, "unit": "micrograms/cm^2"}]}, {"smiles": "ClC1=NSS2=C1N=C(C(Cl)(Cl)Cl)O2", "note": "(stereo not shown) [Compound 14]", "values": [{"measurement": "pest or weed control at 250 ppm", "setting": "[1]; [19]", "value": 21, "unit": "%"}]}, {"smiles": "ClC1=NSS2=C1N=C(c1c(Cl)cccc1Cl)O2", "note": "(stereo not shown) [Compound 15]", "values": [{"measurement": "Botrytis Cinerea, micrograms/cm^2 for 99% control of the fungus", "setting": "[7]", "value": 1.6, "unit": "micrograms/cm^2"}]}, {"smiles": "ClC1=NSS2=C1N=C(c1cc(Cl)cc(Cl)c1)O2", "note": "(stereo not shown) [Compound 16]", "values": [{"measurement": "pest or weed control at 250 ppm", "setting": "[8]", "value": 23, "unit": "%"}]}, {"smiles": "O=[N+]([O-])c1ccc(Cl)cc1C1=NC2=S(O1)SN=C2Cl", "note": "(stereo not shown) [Compound 17]", "values": [{"measurement": "pest or weed control at 250 ppm", "setting": "[4]", "value": 80, "unit": "%"}]}, {"smiles": "N#CSCC1=NC2=S(O1)SN=C2Cl", "note": "(stereo not shown) [Compound 20, 2-thiocyanatomethyl-3-oxa-3aλ^4,4-dithia-6-chloro-1,5-diazapentalene]", "values": [{"measurement": "Rhizoctonia solani, micrograms/cm^2 for 99% control of the fungus", "setting": "[2]", "value": 0.33, "unit": "micrograms/cm^2"}, {"measurement": "Botrytis Cinerea, micrograms/cm^2 for 99% control of the fungus", "setting": "[7]", "value": 0.88, "unit": "micrograms/cm^2"}, {"measurement": "Fusarium moniliforme, micrograms/cm^2 for 99% control of the fungus", "setting": "[5]", "value": "> 1.7", "unit": "micrograms/cm^2"}, {"measurement": "Aspergillus niger, micrograms/cm^2 for 99% control of the fungus", "setting": "[6]", "value": 0.6, "unit": "micrograms/cm^2"}]}, {"smiles": "ClC1=NSS2=C1N=C(C1CC1)O2", "note": "(stereo not shown) [Compound 21, 2-cyclopropyl-3-oxa-3aλ^4,4-dithia-6-chloro-1,5-diazapentalene]", "values": [{"measurement": "pest or weed control at 250 ppm", "setting": "[1]; [19]", "value": 23, "unit": "%"}, {"measurement": "pest or weed control at 250 ppm", "setting": "[4]", "value": 97, "unit": "%"}]}, {"smiles": "N#CSc1cccc(C2=NC3=S(O2)SN=C3Cl)c1", "note": "(stereo not shown) [Compound 22]", "values": [{"measurement": "pest or weed control at 250 ppm", "setting": "[8]", "value": 35, "unit": "%"}]}, {"smiles": "ClC1=NSS2=C1N=C(C(Cl)=C(Cl)Cl)O2", "note": "(stereo not shown) [Compound 23, 2-trichlorovinyl-3-oxa-3aλ^4,4-dithia-6-chloro-1,5-diazapentalene]", "values": [{"measurement": "pest or weed control at 250 ppm", "setting": "[4]", "value": 98, "unit": "%"}, {"measurement": "pest or weed control at 250 ppm", "setting": "[8]", "value": 95, "unit": "%"}]}, {"smiles": "ClC1=NSS2=C1N=C(COc1ccc(Cl)cc1)O2", "note": "(stereo not shown) [Compound 25]", "values": [{"measurement": "pest or weed control at 250 ppm", "setting": "[1]", "value": 88, "unit": "%"}, {"measurement": "Herbicidal Effectiveness - Post, M", "setting": "[9]", "value": 85}, {"measurement": "Herbicidal Effectiveness - Post, W", "setting": "[10]", "value": 0}, {"measurement": "Herbicidal Effectiveness - Post, C", "setting": "[11]", "value": 0}, {"measurement": "Herbicidal Effectiveness - Post, O", "setting": "[12]", "value": 0}, {"measurement": "Herbicidal Effectiveness - Pre, O", "setting": "[13]", "value": 0}, {"measurement": "Herbicidal Effectiveness - Pre, L", "setting": "[14]", "value": 90}, {"measurement": "Herbicidal Effectiveness - Pre, W", "setting": "[15]", "value": 20}, {"measurement": "Herbicidal Effectiveness - Pre, M", "setting": "[16]", "value": 95}, {"measurement": "Herbicidal Effectiveness - Pre, C", "setting": "[17]", "value": 70}, {"measurement": "pest or weed control at 250 ppm", "setting": "[8]", "value": 29, "unit": "%"}, {"measurement": "Herbicidal Effectiveness - Post, L", "setting": "[18]", "value": 85}]}, {"smiles": "ClC1=NSS2=C1N=C(COc1cc(Cl)ccc1Cl)O2", "note": "(stereo not shown) [Compound 27]", "values": [{"measurement": "Herbicidal Effectiveness - Post, M", "setting": "[9]", "value": 80}, {"measurement": "Herbicidal Effectiveness - Post, W", "setting": "[10]", "value": 0}, {"measurement": "Herbicidal Effectiveness - Post, C", "setting": "[11]", "value": 90}, {"measurement": "Herbicidal Effectiveness - Post, O", "setting": "[12]", "value": 0}, {"measurement": "Herbicidal Effectiveness - Pre, O", "setting": "[13]", "value": 0}, {"measurement": "Herbicidal Effectiveness - Pre, L", "setting": "[14]", "value": 82}, {"measurement": "Herbicidal Effectiveness - Pre, W", "setting": "[15]", "value": 55}, {"measurement": "Herbicidal Effectiveness - Pre, M", "setting": "[16]", "value": 87}, {"measurement": "Herbicidal Effectiveness - Pre, C", "setting": "[17]", "value": 55}, {"measurement": "Herbicidal Effectiveness - Post, L", "setting": "[18]", "value": 90}]}, {"smiles": "ClC1=NSS2=C1N=C(c1ccccc1I)O2", "note": "(stereo not shown) [Compound 28]", "values": [{"measurement": "pest or weed control at 250 ppm", "setting": "[4]", "value": 75, "unit": "%"}, {"measurement": "pest or weed control at 250 ppm", "setting": "[8]", "value": 69, "unit": "%"}]}, {"smiles": "ClC1=NSS2=C1N=C(COc1ccc(Cl)cc1Cl)O2", "note": "(stereo not shown) [Compound 29]", "values": [{"measurement": "pest or weed control at 250 ppm", "setting": "[1]; [19]", "value": 69, "unit": "%"}, {"measurement": "Herbicidal Effectiveness - Post, M", "setting": "[9]", "value": 100}, {"measurement": "Herbicidal Effectiveness - Post, W", "setting": "[10]", "value": 20}, {"measurement": "Herbicidal Effectiveness - Post, C", "setting": "[11]", "value": 20}, {"measurement": "Herbicidal Effectiveness - Post, O", "setting": "[12]", "value": 20}, {"measurement": "Herbicidal Effectiveness - Pre, O", "setting": "[13]", "value": 0}, {"measurement": "Herbicidal Effectiveness - Pre, L", "setting": "[14]", "value": 100}, {"measurement": "Herbicidal Effectiveness - Pre, W", "setting": "[15]", "value": 95}, {"measurement": "Herbicidal Effectiveness - Pre, M", "setting": "[16]", "value": 100}, {"measurement": "Herbicidal Effectiveness - Pre, C", "setting": "[17]", "value": 97}, {"measurement": "pest or weed control at 250 ppm", "setting": "[8]", "value": 37, "unit": "%"}, {"measurement": "Herbicidal Effectiveness - Post, L", "setting": "[18]", "value": 97}]}]}
